{"source": "patent US12139505B2", "about": "“Compositions useful in therapy of autophagy-related pathologies, and methods of making and using the same” (The University of Toledo, priority 2017, dated 2024)", "key": {"SH-SY5Y cells": {"system": "SH-SY5Y cells", "experiment": "Western blot for LC3-II (autophagy induction with bafilomycin-A1)", "format": "cell-based, human", "experimental": "(FIG. 35B). […] In a dose dependent manner with a maximum of 6 μM.\n2-n-hexyl-LKE-P drug solutions in CCM from 0.1 to 100 μM were prepared as above for the viability assay except that the drug solutions contained 10 nM bafilomycin A1. For positive control: 50 nM rapamycin in CCM containing 10 nM bafilomycin A1 was used. For negative control: 1 μL of DMSO is dissolved in every 100 μL of CCM containing 10 nM bafilomycin A1. When SH-SY5Y cells were 85-90% confluent, 300,000 cells per well were seeded into 12-well plates. Cells were exposed to four concentrations of 2-n-hexyl-LKE-P, positive control and negative control for 4 hours at 37° C. in 5% CO2 in air atmosphere. Subsequently, the cells were washed with PBS, next, 0.25% Trypsin/EDTA was used to aid in detaching the cells and CCM was then added to neutralize the Trypsin/EDTA and wash the cells from the dish. Washed cells were collected in a centrifuge tube for concentration. After centrifugation at 2000 RPM for 5 minutes, the cells were re-suspended in PBS and re-centrifuged to pellets. The supernatant was then discarded and the cell pellets were frozen in −20° C. freezer. 50 μL lysis buffer (RIPA buffer plus, 1 mM sodiumorthovanadate, 5 mM β-glycerophosphate and 1:200 mammalian protease inhibitor cocktail) was added to the cells and the cells were re-suspended in the lysis buffer. […] The membranes were then ready for imaging."}, "PINK1^B9 flies [1]": {"system": "PINK1^B9 flies", "experiment": "Fly climbing assay", "format": "in vivo, Drosophila melanogaster", "conditions": "100 μM in media", "experimental": "2-n-hexyl-LKE-P was dissolved in DMSO and supplemented into a warm solution of minimal media (5% sucrose, 2% agarose and water, 60° C.) to a final concentration of 10, 100 and 1000 μM. Freshly eclosed adult flies were transferred to minimal media containing the drug for one day followed by the experiments. The locomotive ability of flies was assessed 10 days after eclosion via a climbing assay. 15 flies were transferred to a tube marked 17.5 cm from the bottom and a digital camera, connected directly to a PC, recorded flies as they cross the line, continuously, for two minutes. Analysis of the recorded video was done by recording the number of flies that remain above the 17.5 cm line every ten seconds. If a fly climbs back down or falls, that fly is removed from the total count at the next 10 second time point. The percentage of flies remaining above the line at the 120 second time point was recorded. The 120 second time point was chosen because it has been previously determined that this is the average amount of time required for all untreated flies to cross the 17.5 cm mark."}, "PINK1^B9 flies [2]": {"system": "PINK1^B9 flies", "experiment": "Fly longevity (survival) assay", "format": "in vivo, Drosophila melanogaster", "experimental": "2-n-hexyl-LKE-P was dissolved in DMSO and supplemented into a warm solution of minimal media (5% sucrose, 2% agarose and water, 60° C.) to a final concentration of 10, 100 and 1000 μM. Freshly eclosed adult flies were transferred to minimal media containing the drug for one day followed by the experiments. 15 flies from each group were placed in a vial containing food, kept on its side to prevent the flies from sticking to the media, at 23° C., 60% humidity, under a 12-h light-dark cycle. Food vials were changed every 2-3 days and the dead flies were counted daily. Over 100 flies were prepared for each genotype and the experiments were carried out three times. The number of surviving flies on each day was converted to surviving days for each fly and imported to GraphPad Prism. Kaplan-Meier surviving curves were graphed and statistics was performed by log-rank test on the surviving data to compare the longevity with different treatment."}}, "note": "“Also recorded” adds a separate entry of the source.", "data": [{"smiles": "CCCCCCC1=C(P(=O)(O)O)N[C@H](C(=O)OCC)CS1", "note": "[2-n-hexyl-LKE-P]", "values": [{"measurement": "autophagy stimulation (LC3-I, LC3-II)", "setting": "SH-SY5Y cells; in the presence of bafilomycin-A1", "result": "stimulates autophagy in a dose dependent manner; also recorded: able to stimulate autophagy"}, {"measurement": "concentration of maximum autophagy stimulation", "setting": "SH-SY5Y cells; in the presence of bafilomycin-A1, 0.1 to 10 μM tested", "result": 6, "unit": "µM"}, {"measurement": "climbing ability of PINK1^B9 flies", "setting": "PINK1^B9 flies [1]", "result": "statistically significant improvement in the climbing ability; also recorded: significant improvement of PINK1^B9 climbing ability"}, {"measurement": "survival of PINK1^B9 flies", "setting": "PINK1^B9 flies [2]; 10 μM in media", "result": "did not significantly affect the survival"}, {"measurement": "survival of PINK1^B9 flies", "setting": "PINK1^B9 flies [2]; 100 μM in media", "result": "did not significantly affect the survival"}, {"measurement": "lifespan of PINK1^B9 flies", "setting": "PINK1^B9 flies [2]; 1000 μM in media", "result": "extended the lifespan; also recorded: significantly increased the PINK1^B9 lifespan"}, {"measurement": "lifespan of PINK1^B9 flies", "setting": "PINK1^B9 flies [2]; dose not stated (summary)", "result": "more than double the lifespan"}]}]}
